These results are taken from patent publication US20230127046A1, “G9a INHIBITOR” (RIKEN, priority 2019, published 2023).

The assay concerns the target T1, recombinant human G9a protein (Homo sapiens, UniProt Q96KQ7).
T1 construct: purchased BPS Bioscience Inc. #51001
T1 sequence (Q96KQ7 785-1210 limits assumed): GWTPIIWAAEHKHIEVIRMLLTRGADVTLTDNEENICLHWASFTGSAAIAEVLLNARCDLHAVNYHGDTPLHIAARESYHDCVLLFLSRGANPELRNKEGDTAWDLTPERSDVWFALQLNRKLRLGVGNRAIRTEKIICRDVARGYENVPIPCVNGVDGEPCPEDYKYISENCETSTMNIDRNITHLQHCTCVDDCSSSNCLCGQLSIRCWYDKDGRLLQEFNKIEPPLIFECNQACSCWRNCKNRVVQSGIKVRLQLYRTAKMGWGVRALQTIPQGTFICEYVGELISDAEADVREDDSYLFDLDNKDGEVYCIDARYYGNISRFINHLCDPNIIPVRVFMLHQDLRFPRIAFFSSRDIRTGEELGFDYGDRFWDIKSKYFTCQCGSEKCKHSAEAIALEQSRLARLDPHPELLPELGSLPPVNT
Kind of assay: G9a inhibitory activity test (ALPHA). In kind it is biochemical. In a few lines: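 Human G9a (0.05 to 0.1 nM) in Tris pH 9.0 buffer preincubated with compound 10 min, then biotinylated histone H3 (1-21) peptide and SAM mixed 1:1 from 500 nM and 150 μM solutions, 1 h at room temperature. H3K9me2 detected by AlphaLISA acceptor/streptavidin donor beads; IC50 from percent inhibition relative to no-compound and no-enzyme controls.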

[1] abbreviates: biotinylated histone H3 peptide (1-21), SAM, read-out: Inhibitory activity (G9a IC50 value).
Where [2] appears, read: read-out: Inhibitory activity (G9a IC50).

The structures appear in SMILES notation. pIC50: −log10 of the molar value. Where two headings read alike, the source gives them in different places. Some results are limits rather than exact numbers.

As usually defined, the pIC50 is −log10 of the IC50, conventionally taken in molar units.

On to `Cc1c(C(=O)NC(CCC2CC2)C(=O)N2CCc3cc(Br)ccc32)[nH]c2c1C(=O)CC(C)(C)C2` (centres unmarked) [Example 1-76], for which, under setting [1], the pIC50 was no more than 6.70.
On the same count and under the same terms, the figure for `CCCCC(NC(=O)c1[nH]c2c(c1C)C(=O)CC(C)(C)C2)C(=O)NC1(c2ccccc2)CC1` (centres unmarked) [Example 1-53] is 6.70 to 7.30.
Consider `CCCC[C@H](NC(=O)c1[nH]c2c(c1CC)C(=O)CC(C)(C)C2)C(=O)Nc1ccccc1` [Example 6-35], for which the pIC50 under setting [2] is 6.70 to 7.30.
With `CCCCC(NC(=O)c1sc(-c2ccccc2)nc1C)C(=O)Nc1ccc(OC2CCN(C)CC2)nc1` (centres unmarked) [Example 11-10], under setting [2], the pIC50 was no more than 6.70.
Turning to `CCCCC(NC(=O)c1[nH]c2c(c1C)C(=O)CC(C)(C)C2)C(=O)Nc1ccc(OC2CCN(C)CC2)cc1` (centres unmarked) [Example 1-32], the pIC50 under setting [1] was greater than 7.30.
`COc1ccc(NC(=O)C(CCC2CC2)NC(=O)c2sc(-c3cccnc3)nc2C(F)(F)F)cn1` (centres unmarked) [Example 6-60]: the pIC50 under setting [2] is no more than 6.70.
Consider `CCCC[C@H](NC(=O)c1[nH]c2c(c1C)C(=O)CC(C)(C)C2)C(=O)N[C@@H](CC)c1ccccc1` [Example 6-38], for which the pIC50 under setting [2] is greater than 7.30.
As for `Cc1c(C(=O)NC(CCC2CC2)c2nc3c(CN(C)C)cccc3n2C)[nH]c2c1C(=O)CC(C)(C)C2` (centres unmarked) [Example 31-3], the pIC50 under setting [2] was no more than 6.70.
Turning to `Cc1c(C(=O)N[C@H](CCC2CC2)C(=O)N(C)[C@@H](C)c2ccccc2)[nH]c2c1C(=O)CC(C)(C)C2` [Example 13-6], under setting [2], the pIC50 was no more than 6.70.
As to `CCCCC(NC(=O)c1[nH]c2c(c1C)C(=O)CC(C)(C)C2)C(=O)NC1CCN(CCCN2CCCC2)CC1` (centres unmarked) [Example 1-56], under setting [1], the pIC50 is no more than 6.70.
As for `CCCCC(NC(=O)c1[nH]c2c(c1C)C(=O)CC(C)(C)C2)C(=O)Nc1cccc(C)c1OC` (centres unmarked) [Example 1-28], under setting [1], the pIC50 is no more than 6.70.
Consider `COc1ccc(NC(=O)C(CCC2CC2)NC(=O)c2ccc(C3CCN(C)CC3)cc2)cn1` (centres unmarked) [Example 6-69], for which the pIC50 under setting [2] is no more than 6.70.
On to `CCCCC(NC(=O)c1[nH]c2c(c1C)C(=O)CC(C)(C)C2)C(=O)NCc1ccc(C#N)cc1` (centres unmarked) [Example 1-52], for which the pIC50 under setting [1] is no more than 6.70.
On to `Cc1c(C(=O)NC(CCC2CC2)C(=O)N2CCc3cc(OCCN(C)C)ccc32)[nH]c2c1C(=O)CC(C)(C)C2` (centres unmarked) [Example 1-134], for which, under setting [2], the pIC50 is 6.70 to 7.30.
`CCCCC(NC(=O)c1[nH]c2c(c1C)C(=O)CC(C)(C)C2)C(=O)NC(C)(C)c1ccccc1` (centres unmarked) [Example 1-40]: the pIC50 under setting [1] was no more than 6.70.
Same read-out and setting: the figure for `CCCCC(NC(=O)c1[nH]c2c(c1C)C(=O)CC(C)(C)C2)C(=O)NC1CCCCC1` (centres unmarked) [Example 1-24] is no more than 6.70.
Take `CCCCC(NC(=O)c1[nH]c2c(c1C)C(=O)CC(C)(C)C2)C(=O)N[C@H](CO)c1ccccc1` (some centres unmarked) [Example 3-2]: the pIC50 under setting [2] was no more than 6.70.
Same read-out and setting: for `Cc1c(C(=O)NC(CCC2CC2)c2nc3ccc(CN(C)C)cc3n2C)[nH]c2c1C(=O)CC(C)(C)C2` (centres unmarked) [Example 31-2] the value was no more than 6.70; for `CCCC[C@H](NC(=O)c1[nH]c2c(c1C)C(=O)CC(C)(C)C2)C(=O)NCc1ccc(N2CCN(CCCC)CC2)cc1` [Example 22-5], 6.70 to 7.30.
For the molecule `Cc1c(C(=O)NC(CCC2CC2)C(=O)NCc2ccc(CN(C)C)cc2)[nH]c2c1C(=O)CC(C)(C)C2` (centres unmarked) [Example 1-67], the pIC50 under setting [1] was greater than 7.30.
In the case of `CCCCC(NC(=O)c1[nH]c2c(c1C)C(=O)CC(C)(C)C2)C(=O)NCc1ccc(OC)cc1` (centres unmarked) [Example 1-46], the pIC50 under setting [1] is no more than 6.70.
As to `CCCCC(NC(=O)c1[nH]c2c(c1C)C(=O)CC(C)(C)C2)C(=O)Nc1ccc(CCN2CCCCC2)cc1` (centres unmarked) [Example 1-4], the pIC50 under setting [1] is greater than 7.30.
Take `CCCC[C@H](NC(=O)c1[nH]c2c(c1C)C(=O)CC(C)(C)C2)C(=O)NCc1ccc(N2CCN(CCO)CC2)cc1` [Example 23, (S)-N-(1-((4-(4-(2-hydroxyethyl)piperazin-1-yl)benzyl)amino)-1-oxohexan-2-yl)-3,6,6-trimethyl-4-oxo-4,5,6,7-tetrahydro-1H-indole-2-carboxamide]: under setting [2], the pIC50 was no more than 6.70.
On the same count and under the same terms, the figure for `COc1ccc(NC(=O)C(CCC2CC2)NC(=O)c2ccc(C3CCNCC3)cc2)cn1` (centres unmarked) [Example 28, N-[4-cyclopropyl-1-[(6-methoxypyridine-3-yl)amino]-1-oxobutan-2-yl]-4-piperidin-4-ylbenzamide] is greater than 7.30; for `CCCC[C@@H](CNc1ccc(N2CCN(C)CC2)cc1)NC(=O)c1[nH]c2c(c1C)C(=O)CC(C)(C)C2` [Example 17-2] it is no more than 6.70.
Consider `CCCCC(NC(=O)c1[nH]c2c(c1C)C(=O)CC(C)(C)C2)C(=O)Nc1ccc(OC2CN(C)C2)nc1` (centres unmarked) [Example 1-3], for which the pIC50 under setting [1] is 6.70 to 7.30.
As to `CCCCC(NC(=O)c1[nH]c2c(c1C)C(=O)CC(C)(C)C2)C(=O)Nc1ccc(OCCN(C)C(=O)OC(C)(C)C)nc1` (centres unmarked) [Example 1-57], the pIC50 under setting [1] was no more than 6.70.
Take `CCCCC(NC(=O)c1[nH]c2c(c1C)C(=O)CC(C)(C)C2)C(=O)Nc1cccc(CN2CCC(F)CC2)c1` (centres unmarked) [Example 18-2]: the pIC50 under setting [2] is greater than 7.30.
The same measure, in the same setting: the figure for `COc1ccc2c(c1)CCN2C(=O)C(CCC1CC1)NC(=O)c1[nH]c2c(c1C)C(=O)CC(C)(C)C2` (centres unmarked) [Example 1-130] is no more than 6.70; for `Cc1c(C(=O)NC(CCC2CC2)C(=O)N2CCc3c(CN4CCCCC4)cccc32)[nH]c2c1C(=O)CC(C)(C)C2` (centres unmarked) [Example 1-128] it is greater than 7.30.
Turning to `CCCCC(NC(=O)c1[nH]c2c(c1C)C(=O)CC(C)(C)C2)C(=O)NCc1ccc(N2CCN(C)CC2)cc1` (centres unmarked) [Example 1-54], the pIC50 under setting [1] is no more than 6.70.
Turning to `CCCC[C@H](NC(=O)c1[nH]c2c(c1C)C(=O)CC(C)(C)C2)C(=O)Nc1ccc(OC2CNC2)nc1` [Example 26-2], under setting [2], the pIC50 was greater than 7.30.
As to `Cc1c(C(=O)NC(CCC2CC2)c2nc3cccc(CN(C)C)c3n2C)[nH]c2c1C(=O)CC(C)(C)C2` (centres unmarked) [Example 31-1, N-[3-cyclopropyl-1-[7-[(dimethylamino)methyl]-1-methylbenzoimidazol-2-yl]propyl]-3,6,6-trimethyl-4-oxo-5,7-dihydro-1H-indole-2-carboxamide], the pIC50 under setting [2] is no more than 6.70.
Same read-out and setting: for `COc1ccc(NC(=O)C(CCC2CC2)NC(=O)c2nc(-c3ccccc3)sc2C)cn1` (centres unmarked) [Example 6-54] the value was no more than 6.70; for `CN(C)c1ccc(NC(=O)C(CCC2CC2)NC(=O)c2ccc(Nc3ccncc3)cc2)cn1` (centres unmarked) [Example 6-85], greater than 7.30; for `CCCCC(NC(=O)c1ccc(Nc2ccncc2)cc1)C(=O)Nc1ccc(OC2CCN(C)CC2)nc1` (centres unmarked) [Example 11-5], greater than 7.30.
On the same count and under the same terms, for `COc1ccc(NC(=O)C(CCC2CC2)NC(=O)c2ccc(-n3ccc4cnccc43)cc2)cn1` (centres unmarked) [Example 6-58] the value was 6.70 to 7.30; for `CCCCC(NC(=O)c1[nH]c2c(c1C)C(=O)CC(C)(C)C2)C(=O)NCc1ccc(CN(CC)CC)cc1` (centres unmarked) [Example 18-12], greater than 7.30; for `CCCCC(NC(=O)c1[nH]c2c(c1C)C(=O)CC(C)(C)C2)C(=O)Nc1ccc2c(c1)CCNC2` (centres unmarked) [Example 25-2], 6.70 to 7.30.
On the same count and under the same terms, for `Cc1c(C(=O)NC(CCC2CC2)C(=O)N2CCc3ccc(CN4CCCCC4)cc32)[nH]c2c1C(=O)CC(C)(C)C2` (centres unmarked) [Example 1-146] the value was no more than 6.70.
For `CCc1ccccc1NC(=O)C(CCC1CC1)NC(=O)c1[nH]c2c(c1C)C(=O)CC(C)(C)C2` (centres unmarked) [Example 1-84], under setting [1], the pIC50 was greater than 7.30.
On the same count and under the same terms, the figure for `Cc1c(C(=O)NC(CCC2CC2)C(=O)Nc2ccc(O)nc2)[nH]c2c1C(=O)CC(C)(C)C2` (centres unmarked) [Example 1-70] is 6.70 to 7.30.
In the case of `CCCCC(NC(=O)c1[nH]c2c(c1C)C(=O)CC(C)(C)C2)C(=O)NCc1ccc(CN)cc1` (centres unmarked) [Example 24-2], under setting [2], the pIC50 is greater than 7.30.
As for `CCCCC(NC(=O)c1[nH]c2c(c1C)C(=O)CC(C)(C)C2)C(=O)NCc1ccccc1O` (centres unmarked) [Example 1-29], the pIC50 under setting [1] is no more than 6.70.
As for `CCCCC(NC(=O)c1[nH]c2c(c1C)C(=O)CC(C)(C)C2)C(=O)Nc1ccc(OC2CNC2)nc1` (centres unmarked) [Example 26-1], the pIC50 under setting [2] is 6.70 to 7.30.
With `CCCC[C@H](NC(=O)c1[nH]c2c(c1CC)C(=O)CC(C)(C)C2)C(=O)N[C@@H](C)c1ccccc1` [Example 6-40], the pIC50 under setting [2] is 6.70 to 7.30.
Same read-out and setting: for `Cc1c(C(=O)N[C@@H](CCC2CC2)C(=O)N[C@@H](C)c2ccccc2)[nH]c2c1C(=O)CC(C)(C)C2` [Example 13-1, N-((S)-4-cyclopropyl-1-oxo-1-(((S)-1-phenylethyl)amino)butan-2-yl)-3,6,6-trimethyl-4-oxo-4,5,6,7-tetrahydro-1H-indole-2-carboxamide] the value was greater than 7.30.
With `CCCCC(NC(=O)c1[nH]c2c(c1C)C(=O)CC(C)(C)C2)C(=O)NCc1ccc(CNC(C)(C)C)cc1` (centres unmarked) [Example 18-4], the pIC50 under setting [2] is greater than 7.30.
On the same count and under the same terms, for `CCCCC(NC(=O)c1[nH]c2c(c1C)C(=O)CC(C)(C)C2)C(=O)Nc1cccnc1CC` (centres unmarked) [Example 6-23] the value was no more than 6.70; for `CCCCC(NC(=O)c1[nH]c2c(c1C)C(=O)CC(C)(C)C2)C(=O)NCc1ccc(CN2CCC(F)(F)CC2)cc1` (centres unmarked) [Example 18-8], no more than 6.70; for `CCCC[C@H](NC(=O)c1[nH]c2c(c1CC)C(=O)CC(C)(C)C2)C(=O)N[C@@H](CO)c1ccccc1` [Example 6-46], 6.70 to 7.30.
For `CCCCC(NC(=O)c1[nH]c2c(c1C)C(=O)CC(C)(C)C2)C(=O)Nc1cccc(C#N)c1` (centres unmarked) [Example 1-10], the pIC50 under setting [1] is no more than 6.70.
In the case of `CCCCC(NC(=O)c1[nH]c2c(c1C)C(=O)CC(C)(C)C2)C(=O)Nc1ccc(CN(C)C)cc1` (centres unmarked) [Example 18-3], under setting [2], the pIC50 was greater than 7.30.
